Columns and labels:
itchgrass = assay: Test D itchgrass; assay type: in vivo, Rottboellia exaltata; settings: Postemergence, 0 to 100 scale
common ragweed = assay: Test D common ragweed; assay type: in vivo, Ambrosia elatior; settings: Postemergence, 0 to 100 scale
Johnson grass = assay: Test D Johnson grass; assay type: in vivo, Sorghum halepense; settings: Postemergence, 0 to 100 scale
Alexandergrass = assay: Test D Alexandergrass; assay type: in vivo, Brachiaria plantaginea; settings: Postemergence, 0 to 100 scale
sandbur = assay: Test D sandbur; assay type: in vivo, Cenchrus echinatus; settings: Postemergence, 0 to 100 scale
Green foxtail [1] = assay: Test D green foxtail; assay type: in vivo; settings: Rate 250 g/ha; Postemergence; 0 to 100 scale
Green foxtail [2] = assay: Test D green foxtail; assay type: in vivo; settings: Postemergence, 0 to 100 scale, 0 no injury, 100 complete control
tall mallow = assay: Test D tall mallow; assay type: in vivo, Malva sylvestris; settings: Postemergence, 0 to 100 scale
dallisgrass = assay: Test D dallisgrass; assay type: in vivo, Paspalum dilatatum; settings: Postemergence, 0 to 100 scale
Green foxtail [3] = assay: Test D green foxtail; assay type: in vivo; settings: Postemergence, 0 to 100 scale, 0 no injury, 100 complete control; remark: listed apart in the source
Green foxtail [4] = assay: Test D green foxtail; assay type: in vivo; settings: Postemergence, 0 to 100 scale, 0 no injury, 100 complete control; remark: listed apart in the source
pitted morningglory = assay: Test D pitted morningglory; assay type: in vivo, Ipomoea lacunosa; settings: Postemergence, 0 to 100 scale
surinam grass = assay: Test D surinam grass; assay type: in vivo, Brachiaria decumbens; settings: Postemergence, 0 to 100 scale
bermuda-grass = assay: Test D bermudagrass; assay type: in vivo, Cynodon dactylon; settings: Postemergence, 0 to 100 scale
Green foxtail [5] = assay: Test D green foxtail; assay type: in vivo; settings: Rate 250 g/ha; Postemergence; 0 to 100 scale; remark: listed apart in the source
[6] = Rate 16 g/ha, 0 no injury, 100 complete control
[7] = Rate 32 g/ha, 0 no injury, 100 complete control
[8] = Rate 64 g/ha, 0 no injury, 100 complete control
[9] = Rate 125 g/ha, 0 no injury, 100 complete control

COCC(C)n1c(=O)on(C(=O)N(c2ccc(F)cc2F)C(C)C)c1=O (stereo not shown) [Compound 357]
Plant response rating, Itchgrass (itchgrass; [6]): 0 | Plant response rating, Itchgrass (itchgrass; [7]): 0 | Plant response rating, Itchgrass (itchgrass; [8]): 0 | Plant response rating, Itchgrass (itchgrass; [9]): 30 | Plant response rating, Itchgrass (itchgrass; Rate 250 g/ha): 50 | Plant response rating, C. ragweed (common ragweed; [6]): 0 | Plant response rating, C. ragweed (common ragweed; [8]): 0 | Plant response rating, C. ragweed (common ragweed; [9]): 0 | Plant response rating, C. ragweed (common ragweed; Rate 250 g/ha): 50 | Plant response rating, Johnsongrass (Johnson grass; [6]): 0 | Plant response rating, Johnsongrass (Johnson grass; [7]): 0 | Plant response rating, Johnsongrass (Johnson grass; [8]): 0 | Plant response rating, Johnsongrass (Johnson grass; [9]): 60 | Plant response rating, Johnsongrass (Johnson grass; Rate 250 g/ha): 90 | Plant response rating, Alexandergrass (Alexandergrass; [6]): 0 | Plant response rating, Alexandergrass (Alexandergrass; [7]): 20 | Plant response rating, Alexandergrass (Alexandergrass; [8]): 100 | Plant response rating, Alexandergrass (Alexandergrass; [9]): 100 | Plant response rating, Alexandergrass (Alexandergrass; Rate 250 g/ha): 100 | Plant response rating, Sandbur (sandbur; [6]): 0 | Plant response rating, Sandbur (sandbur; [7]): 0 | Sandbur plant response rating (sandbur; [8]): 0 | Sandbur plant response rating (sandbur; [9]): 0 | Plant response rating, Sandbur (sandbur; Rate 250 g/ha): 100 | Plant response rating, Green foxtail (Green foxtail [1]): 100 | Green foxtail plant response rating (Green foxtail [2]; Rate 64 g/ha): 100 | Green foxtail plant response rating (Green foxtail [2]; Rate 125 g/ha): 100 | Plant response rating, Tall Mallow (tall mallow; [6]): 10 | Plant response rating, Tall Mallow (tall mallow; [7]): 10 | Tall Mallow plant response rating (tall mallow; [8]): 20 | Tall Mallow plant response rating (tall mallow; [9]): 50 | Plant response rating, Tall Mallow (tall mallow; Rate 250 g/ha): 100 | Plant response rating, Dallisgrass (dallisgrass; [6]): 0 | Plant response rating, Dallisgrass (dallisgrass; [7]): 20 | Plant response rating, Dallisgrass (dallisgrass; [8]): 100 | Plant response rating, Dallisgrass (dallisgrass; [9]): 100 | Plant response rating, Dallisgrass (dallisgrass; Rate 250 g/ha): 100 | Plant response rating, Green foxtail (Green foxtail [3]; Rate 16 g/ha): 10 | Plant response rating, Green foxtail (Green foxtail [3]; Rate 32 g/ha): 30 | Plant response rating, Green foxtail (Green foxtail [4]; Rate 16 g/ha): 10 | Plant response rating, Green foxtail (Green foxtail [4]; Rate 32 g/ha): 30 | Plant response rating, P. morninglory (pitted morningglory; [6]): 0 | Plant response rating, P. morninglory (pitted morningglory; [7]): 0 | Plant response rating, P. morninglory (pitted morningglory; [8]): 0 | Plant response rating, P. morninglory (pitted morningglory; [9]): 0 | Plant response rating, P. morninglory (pitted morningglory; Rate 250 g/ha): 0 | Plant response rating, Surinam grass (surinam grass; [6]): 0 | Plant response rating, Surinam grass (surinam grass; [7]): 20 | Surinam grass plant response rating (surinam grass; [8]): 80 | Surinam grass plant response rating (surinam grass; [9]): 100 | Plant response rating, Surinam grass (surinam grass; Rate 250 g/ha): 100 | Plant response rating, Bermudagrass (bermuda-grass; [6]): 90 | Plant response rating, Bermudagrass (bermuda-grass; [7]): 100 | Plant response rating, Bermudagrass (bermuda-grass; [8]): 100 | Plant response rating, Bermudagrass (bermuda-grass; [9]): 100 | Plant response rating, Bermudagrass (bermuda-grass; Rate 250 g/ha): 100 | Plant response rating, Green foxtail (Green foxtail [5]): 100

CCC(CC)n1c(=O)on(C(=O)N(c2ccc(F)cc2)C(C)C)c1=O [Compound 358]
Plant response rating, Itchgrass (itchgrass; [6]): 0 | Plant response rating, Itchgrass (itchgrass; [7]): 0 | Plant response rating, Itchgrass (itchgrass; [8]): 0 | Plant response rating, Itchgrass (itchgrass; [9]): 0 | Plant response rating, Itchgrass (itchgrass; Rate 250 g/ha): 100 | Plant response rating, C. ragweed (common ragweed; [6]): 0 | Plant response rating, C. ragweed (common ragweed; [7]): 0 | Plant response rating, C. ragweed (common ragweed; [8]): —30 | Plant response rating, C. ragweed (common ragweed; [9]): 70 | Plant response rating, C. ragweed (common ragweed; Rate 250 g/ha): 70 | Plant response rating, Johnsongrass (Johnson grass; [6]): 0 | Plant response rating, Johnsongrass (Johnson grass; [7]): 0 | Plant response rating, Johnsongrass (Johnson grass; [8]): 0 | Plant response rating, Johnsongrass (Johnson grass; [9]): 0 | Plant response rating, Johnsongrass (Johnson grass; Rate 250 g/ha): 100 | Plant response rating, Alexandergrass (Alexandergrass; [6]): 0 | Plant response rating, Alexandergrass (Alexandergrass; [7]): 0 | Plant response rating, Alexandergrass (Alexandergrass; [8]): 100 | Plant response rating, Alexandergrass (Alexandergrass; [9]): 90 | Plant response rating, Alexandergrass (Alexandergrass; Rate 250 g/ha): 100 | Plant response rating, Sandbur (sandbur; [6]): 0 | Plant response rating, Sandbur (sandbur; [7]): 20 | Sandbur plant response rating (sandbur; [8]): 100 | Sandbur plant response rating (sandbur; [9]): 100 | Plant response rating, Sandbur (sandbur; Rate 250 g/ha): 90 | Plant response rating, Green foxtail (Green foxtail [1]): 100 | Green foxtail plant response rating (Green foxtail [2]; Rate 64 g/ha): 100 | Green foxtail plant response rating (Green foxtail [2]; Rate 125 g/ha): 100 | Plant response rating, Tall Mallow (tall mallow; [6]): 0 | Plant response rating, Tall Mallow (tall mallow; [7]): 30 | Tall Mallow plant response rating (tall mallow; [8]): 50 | Tall Mallow plant response rating (tall mallow; [9]): 70 | Plant response rating, Tall Mallow (tall mallow; Rate 250 g/ha): 80 | Plant response rating, Dallisgrass (dallisgrass; [6]): 0 | Plant response rating, Dallisgrass (dallisgrass; [7]): 30 | Plant response rating, Dallisgrass (dallisgrass; [8]): 100 | Plant response rating, Dallisgrass (dallisgrass; [9]): 100 | Plant response rating, Dallisgrass (dallisgrass; Rate 250 g/ha): 100 | Plant response rating, Green foxtail (Green foxtail [3]; Rate 16 g/ha): 0 | Plant response rating, Green foxtail (Green foxtail [3]; Rate 32 g/ha): 30 | Plant response rating, Green foxtail (Green foxtail [4]; Rate 16 g/ha): 0 | Plant response rating, Green foxtail (Green foxtail [4]; Rate 32 g/ha): 30 | Plant response rating, P. morninglory (pitted morningglory; [6]): 0 | Plant response rating, P. morninglory (pitted morningglory; [7]): 0 | Plant response rating, P. morninglory (pitted morningglory; [8]): 0 | Plant response rating, P. morninglory (pitted morningglory; [9]): 0 | Plant response rating, P. morninglory (pitted morningglory; Rate 250 g/ha): 0 | Plant response rating, Surinam grass (surinam grass; [6]): 0 | Plant response rating, Surinam grass (surinam grass; [7]): 0 | Surinam grass plant response rating (surinam grass; [8]): 0 | Surinam grass plant response rating (surinam grass; [9]): 50 | Plant response rating, Surinam grass (surinam grass; Rate 250 g/ha): 50 | Plant response rating, Bermudagrass (bermuda-grass; [6]): 0 | Plant response rating, Bermudagrass (bermuda-grass; [7]): 90 | Plant response rating, Bermudagrass (bermuda-grass; [8]): 100 | Plant response rating, Bermudagrass (bermuda-grass; [9]): 100 | Plant response rating, Bermudagrass (bermuda-grass; Rate 250 g/ha): 100 | Plant response rating, Green foxtail (Green foxtail [5]): 100

Source: patent US6737383B1, “Herbicidal oxadiazolidines” (priority 1999, dated 2004)
